Test results as given in ChEMBL document CHEMBL1201862, “PubChem BioAssay data set” (2004).
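In this assay, cells in 96-well plates receive the compound at five concentrations for 48 hours. Endpoints are linearly interpolated between the surrounding concentrations. GI50 marks 50% less growth.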 Active and inactive are the calls of the source. Rule as the data show it: active = GI50 up to about 1.1 µM and inactive = higher.

Legend:
Assay in all cases: growth of human tumour cells (NCI), 48 h
IGROV-1 = test system: IGROV-1
SN12C = test system: SN12C
OVCAR-3 = test system: OVCAR-3
NCI-H23 = test system: NCI-H23
HOP-92 = test system: HOP-92
HCT-15 = test system: HCT-15
TK-10 = test system: TK-10
SF-295 = test system: SF-295
SK-MEL-5 = test system: SK-MEL-5
SK-MEL-28 = test system: SK-MEL-28
UO-31 = test system: UO-31
RPMI-8226 = test system: RPMI-8226
HL-60 = test system: HL-60
SW-620 = test system: SW-620
SNB-19 = test system: SNB-19
ACHN = test system: ACHN
CCRF-CEM = test system: CCRF-CEM

CCC1CN2CCc3cc(OC)c(OC)cc3C2CC1CC1c2cc(OC)c(OC)cc2CCN1C(=O)C1CCCN1C(=O)OCc1ccccc1 (centres undefined)
GI50 (IGROV-1): 15.9 µM (inactive)
GI50 (SN12C): 16.3 µM (inactive)
GI50 (OVCAR-3): 16.2 µM (inactive)
GI50 (NCI-H23): 16.3 µM (inactive)
GI50 (HOP-92): 10.2 µM (inactive)
GI50 (HCT-15): 16.2 µM
GI50 (TK-10): 19.5 µM (inactive)
GI50 (SF-295): 16.5 µM (inactive)
GI50 (SK-MEL-5): 15.5 µM (inactive)
GI50 (SK-MEL-28): 16.9 µM (inactive)
GI50 (UO-31): 12.7 µM (inactive)
GI50 (RPMI-8226): 15 µM (inactive)
GI50 (HL-60): 13.1 µM (inactive)
GI50 (SW-620): 14.8 µM (inactive)
GI50 (SNB-19): 24.3 µM (inactive)
GI50 (ACHN): 17.7 µM (inactive)

COc1ccc(OC)c(NC(=O)C(=O)CC(=O)c2sc(-n3nc(-c4ccccc4)cc3-c3ccccc3)nc2C)c1
GI50 (IGROV-1): > 100 µM (inactive)
GI50 (SN12C): > 100 µM (inactive)
GI50 (OVCAR-3): > 100 µM (inactive)
GI50 (NCI-H23): > 100 µM (inactive)
GI50 (HCT-15): > 100 µM
GI50 (TK-10): > 100 µM (inactive)
GI50 (SF-295): > 100 µM (inactive)
GI50 (UO-31): > 100 µM (inactive)
GI50 (RPMI-8226): > 100 µM (inactive)
GI50 (CCRF-CEM): > 100 µM (inactive)
GI50 (HL-60): > 100 µM (inactive)
GI50 (SW-620): > 100 µM (inactive)
GI50 (SNB-19): > 100 µM (inactive)

CC(C)(C)C(=O)OCC(COC(=O)C(C)(C)C)[N+](=O)[O-]
GI50 (IGROV-1): > 100 µM (inactive)
GI50 (SN12C): > 100 µM (inactive)
GI50 (OVCAR-3): > 100 µM (inactive)
GI50 (NCI-H23): > 100 µM (inactive)
GI50 (HCT-15): > 100 µM
GI50 (TK-10): > 100 µM (inactive)
GI50 (SF-295): > 100 µM (inactive)
GI50 (SK-MEL-28): > 100 µM (inactive)
GI50 (UO-31): > 100 µM (inactive)
GI50 (RPMI-8226): 45.3 µM (inactive)
GI50 (CCRF-CEM): 41.9 µM (inactive)
GI50 (HL-60): 27.4 µM (inactive)
GI50 (SW-620): > 100 µM (inactive)
GI50 (SNB-19): > 100 µM (inactive)
GI50 (ACHN): > 100 µM (inactive)

CC(C)C1CC2C(=O)N(c3ccccc3)C(=O)C2c2[nH]c3ccccc3c21 (centres undefined)
GI50 (IGROV-1): 34.5 µM (inactive)
GI50 (OVCAR-3): 5.78 µM (inactive)
GI50 (NCI-H23): 19.5 µM (inactive)
GI50 (HCT-15): 14.6 µM
GI50 (TK-10): 23.1 µM (inactive)
GI50 (SF-295): 6.9 µM (inactive)
GI50 (SK-MEL-5): 73.8 µM (inactive)
GI50 (SK-MEL-28): 23.4 µM (inactive)
GI50 (UO-31): 17.3 µM (inactive)
GI50 (RPMI-8226): 19.8 µM (inactive)
GI50 (CCRF-CEM): 14 µM (inactive)
GI50 (HL-60): 7.45 µM (inactive)
GI50 (SW-620): 8.26 µM (inactive)
GI50 (ACHN): 4.4 µM (inactive)

C[C@]12CC[C@@H]3c4ccccc4CC[C@H]3[C@@H]1CC[C@@H]2O
GI50 (IGROV-1): > 100 µM (inactive)
GI50 (SN12C): 83 µM (inactive)
GI50 (OVCAR-3): > 100 µM (inactive)
GI50 (NCI-H23): > 100 µM (inactive)
GI50 (HCT-15): 50.2 µM
GI50 (TK-10): > 100 µM (inactive)
GI50 (SF-295): > 100 µM (inactive)
GI50 (SK-MEL-28): > 100 µM (inactive)
GI50 (UO-31): 39.7 µM (inactive)
GI50 (RPMI-8226): 53.2 µM (inactive)
GI50 (CCRF-CEM): 62.5 µM (inactive)
GI50 (HL-60): > 10 µM (inactive)
GI50 (SW-620): > 100 µM (inactive)
GI50 (SNB-19): > 100 µM (inactive)
GI50 (ACHN): > 100 µM (inactive)

C#CCOCn1cnc2c(Cl)ncnc21
GI50 (IGROV-1): > 100 µM (inactive)
GI50 (SN12C): > 100 µM (inactive)
GI50 (OVCAR-3): > 100 µM (inactive)
GI50 (NCI-H23): > 100 µM (inactive)
GI50 (HOP-92): > 100 µM (inactive)
GI50 (TK-10): > 100 µM (inactive)
GI50 (SF-295): > 100 µM (inactive)
GI50 (SK-MEL-5): > 100 µM (inactive)
GI50 (SK-MEL-28): > 100 µM (inactive)
GI50 (UO-31): > 100 µM (inactive)
GI50 (RPMI-8226): > 100 µM (inactive)
GI50 (CCRF-CEM): > 100 µM (inactive)
GI50 (SW-620): > 100 µM (inactive)
GI50 (SNB-19): > 100 µM (inactive)
GI50 (ACHN): > 100 µM (inactive)

O=C(NCc1ccncc1)C1COc2cc(-c3cc(=O)c4ccccc4o3)ccc2O1 (centres undefined)
GI50 (IGROV-1): > 100 µM (inactive)
GI50 (SN12C): > 100 µM (inactive)
GI50 (OVCAR-3): > 100 µM (inactive)
GI50 (NCI-H23): > 100 µM (inactive)
GI50 (HOP-92): > 100 µM (inactive)
GI50 (HCT-15): > 100 µM
GI50 (TK-10): > 100 µM (inactive)
GI50 (SF-295): > 100 µM (inactive)
GI50 (SK-MEL-5): > 100 µM (inactive)
GI50 (SK-MEL-28): > 100 µM (inactive)
GI50 (UO-31): > 100 µM (inactive)
GI50 (CCRF-CEM): > 100 µM (inactive)
GI50 (HL-60): > 100 µM (inactive)
GI50 (SW-620): > 100 µM (inactive)
GI50 (ACHN): > 100 µM (inactive)

O=C1c2ccccc2C2(O)c3cc4ccccc4cc3OC12O (centres undefined)
GI50 (IGROV-1): 85.7 µM (inactive)
GI50 (SN12C): 92.5 µM (inactive)
GI50 (OVCAR-3): 53.6 µM (inactive)
GI50 (NCI-H23): 55.6 µM (inactive)
GI50 (HOP-92): 27.6 µM (inactive)
GI50 (HCT-15): 53.2 µM
GI50 (TK-10): > 100 µM (inactive)
GI50 (SF-295): 34.2 µM (inactive)
GI50 (SK-MEL-5): 30.1 µM (inactive)
GI50 (SK-MEL-28): 59.3 µM (inactive)
GI50 (RPMI-8226): 34 µM (inactive)
GI50 (CCRF-CEM): 47.2 µM (inactive)
GI50 (SW-620): > 100 µM (inactive)
GI50 (SNB-19): 31.2 µM (inactive)
GI50 (ACHN): 97.3 µM (inactive)

ClC1=C(Cl)C(Cl)(Cl)c2c3c(c4c(c21)C(Cl)(Cl)C(Cl)=C4Cl)C(Cl)(Cl)C(Cl)=C3Cl
GI50 (IGROV-1): > 100 µM (inactive)
GI50 (SN12C): > 100 µM (inactive)
GI50 (OVCAR-3): > 100 µM (inactive)
GI50 (NCI-H23): > 100 µM (inactive)
GI50 (HCT-15): > 100 µM
GI50 (SF-295): > 100 µM (inactive)
GI50 (SK-MEL-5): > 100 µM (inactive)
GI50 (SK-MEL-28): > 100 µM (inactive)
GI50 (RPMI-8226): > 100 µM (inactive)
GI50 (CCRF-CEM): > 100 µM (inactive)
GI50 (HL-60): > 100 µM (inactive)
GI50 (SW-620): > 100 µM (inactive)
GI50 (SNB-19): > 100 µM (inactive)
GI50 (ACHN): > 100 µM (inactive)

CC(=O)OCC1OC(n2c(-c3ccc(N)cc3)cc(-c3ccco3)c(C#N)c2=O)C(OC(C)=O)C(OC(C)=O)C1OC(C)=O (centres undefined)
GI50 (IGROV-1): 45 µM (inactive)
GI50 (SN12C): > 50 µM (inactive)
GI50 (OVCAR-3): > 50 µM (inactive)
GI50 (NCI-H23): 26 µM (inactive)
GI50 (HOP-92): 4.08 µM (inactive)
GI50 (HCT-15): > 50 µM
GI50 (TK-10): > 50 µM (inactive)
GI50 (SF-295): 28 µM (inactive)
GI50 (SK-MEL-5): 8.93 µM (inactive)
GI50 (SK-MEL-28): > 50 µM (inactive)
GI50 (UO-31): > 50 µM (inactive)
GI50 (SW-620): > 50 µM (inactive)
GI50 (SNB-19): > 50 µM (inactive)
GI50 (ACHN): > 50 µM (inactive)

CC(C)(C)c1ccc2c(c1)S(=O)(=O)Nc1ccccc1NS(=O)(=O)c1cc(C(C)(C)C)ccc1OCCOCCOCCO2
GI50 (IGROV-1): > 100 µM (inactive)
GI50 (SN12C): > 100 µM (inactive)
GI50 (OVCAR-3): > 100 µM (inactive)
GI50 (NCI-H23): > 100 µM (inactive)
GI50 (HOP-92): 85.3 µM (inactive)
GI50 (HCT-15): > 100 µM
GI50 (TK-10): > 100 µM (inactive)
GI50 (SF-295): 71 µM (inactive)
GI50 (SK-MEL-5): 93.8 µM (inactive)
GI50 (SK-MEL-28): > 100 µM (inactive)
GI50 (UO-31): > 100 µM (inactive)
GI50 (CCRF-CEM): > 100 µM (inactive)
GI50 (HL-60): > 100 µM (inactive)
GI50 (SW-620): > 100 µM (inactive)
GI50 (SNB-19): > 100 µM (inactive)
GI50 (ACHN): > 100 µM (inactive)

CC(=O)NN1C(=O)C(Cc2ccccc2)c2ccccc21 (centres undefined)
GI50 (IGROV-1): > 100 µM (inactive)
GI50 (SN12C): > 100 µM (inactive)
GI50 (OVCAR-3): > 100 µM (inactive)
GI50 (NCI-H23): > 100 µM (inactive)
GI50 (HOP-92): > 100 µM (inactive)
GI50 (HCT-15): > 100 µM
GI50 (TK-10): > 100 µM (inactive)
GI50 (SF-295): > 100 µM (inactive)
GI50 (SK-MEL-5): > 100 µM (inactive)
GI50 (SK-MEL-28): > 100 µM (inactive)
GI50 (UO-31): > 100 µM (inactive)
GI50 (RPMI-8226): > 100 µM (inactive)
GI50 (CCRF-CEM): > 100 µM (inactive)
GI50 (SW-620): > 100 µM (inactive)
GI50 (SNB-19): > 100 µM (inactive)
GI50 (ACHN): > 100 µM (inactive)

CC1(C2COC(=O)C2)SCCCS1 (centres undefined)
GI50 (IGROV-1): > 100 µM (inactive)
GI50 (SN12C): > 100 µM (inactive)
GI50 (OVCAR-3): > 100 µM (inactive)
GI50 (NCI-H23): > 100 µM (inactive)
GI50 (HOP-92): > 100 µM (inactive)
GI50 (HCT-15): > 100 µM
GI50 (TK-10): > 100 µM (inactive)
GI50 (SF-295): > 100 µM (inactive)
GI50 (SK-MEL-5): > 100 µM (inactive)
GI50 (SK-MEL-28): > 100 µM (inactive)
GI50 (UO-31): 14.2 µM (inactive)
GI50 (CCRF-CEM): > 100 µM (inactive)
GI50 (HL-60): > 100 µM (inactive)
GI50 (SW-620): > 100 µM (inactive)
GI50 (SNB-19): > 100 µM (inactive)
GI50 (ACHN): > 100 µM (inactive)
